Consider 27 molecules from US20230357179A1, “RAF KINASE INHIBITORS AND METHODS OF USE THEREOF” (Deciphera Pharmaceuticals, LLC, priority 2021, published 2023).

The structures appear in SMILES notation.

One experiment concerns the target T1, B-Raf (V600E) kinase (Homo sapiens, UniProt P15056, V600E).
T1 construct: B-Raf (V600E) residues 416-766 with a; GST (N); purchased SignalChem
Briefly: Biochemical assay for B-Raf (V600E).1 (coupled pyruvate kinase/lactate dehydrogenase). To be noted: read-out: BRAF V600E.1 IC50. A digest of the protocol: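 IC50 came from four-parameter sigmoidal fits of percent inhibition, using reaction rates over 3-4 h. Continuous A340 reading (6 h, 30 °C) of a pyruvate kinase/lactate dehydrogenase-coupled reaction: B-Raf V600E 0.03 nM, MEK 30.1 nM, ATP 1 mM, Tris pH 7.5, 1% DMSO.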

In the next experiment the test system is WM3928 cells. In words: WM3928 cell proliferation assay (1), resazurin, 96-well. The settings on record: inhibition of cell proliferation. The experiment is classed as cell-based. As to the method: WM3928 Cell Proliferation Assay (1)
WM3928 cells (#WM3928-01-0001) are obtained from Rockland Immunochemicals Inc (Gilbertsville, PA). Briefly, cells were grown in MCDB 153 medium (Sigma, #M7403, St. Louis, MO) supplemented with 20% Leibovitz's L-15 (ThermoFisher #11415-064, Waltham, MA), 2% heat inactivated fetal bovine serum (ThermoFisher, #A3840001, Waltham, MA), 5 μg/mL Insulin (Bovine Pancreas) (Sigma, #I0516, St. Louis, MO), 1.68 mM Calcium Chloride (Sigma, #C-34006, St. Louis, MO) and 1% Penicillin/Streptomycin/L-Glutamine (ThermoFisher #10378016, Waltham, MA) at 37° C., 5% CO2, and 95% humidity. Cells are expanded until reaching 70-95% confluency at which point they are subcultured or harvested for assay use. A serial dilution of test compound is dispensed into a 96-well black clear bottom plate in triplicate. Three thousand cells are added per well in 200 μL complete growth medium in the 96-well plate. Plates are incubated for 67-72 hours at 37° C., 5% CO2, and 95% humidity. At the end of the incubation, 40 μL of a 440 μM solution of resazurin (Sigma, #199303, St. Louis, MO) in PBS is added to each well of the plate and plates are incubated for an additional 6-7 hours at 37° C., 5% CO2, and 95% humidity. Plates are read on a Synergy2 or equivalent reader (Biotek, Winooski VT) using an excitation of 540 nm and an emission of 600 nm. Data is analyzed using Prism software (GraphPad, San Diego, CA) to calculate IC50 values.
(Resazurin is reduced to fluorescent resorufin, in cell work by metabolically active cells.)

For a further experiment, the system named is Miapaca-2 cells. In words: MiaPaca-2 cell proliferation assay (1), resazurin, 96-well. The format is cell-based. The settings on record: Homo sapiens, MIA PaCa-2, inhibition of cell proliferation. As to the method:
MiaPaca-2 Cell Proliferation Assay (1)
(§1) Miapaca-2 cells (catalog #CRL-1420) are obtained from the American Type Culture Collect (ATTC, Manassas, VA). Briefly, cells were grown in DMEM supplemented with 10% characterized fetal bovine serum (Invitrogen, Carlsbad, CA), 2.5% New Zealand sourced horse serum and 1% Penicillin/Streptomycin/L-Glutamine at 37° C., 5% CO2, and 95% humidity. Cells are expanded until reaching 70-95% confluency at which point they are subcultured or harvested for assay use. A serial dilution of test compound is dispensed into a 96-well black clear bottom plate in triplicate. Three thousand cells are added per well in 200 μL complete growth medium in the 96-well plate. Plates are incubated for 67-72 hours at 37° C., 5% CO2, and 95% humidity. At the end of the incubation, 40 μL of a 440 μM solution of resazurin (Sigma, St. Louis, MO) in PBS is added to each well of the plate and plates are incubated for an additional 5-6 hours at 37° C., 5% CO2, and 95% humidity. Plates are read on a Synergy2 or equivalent reader (Biotek, Winooski VT) using an excitation of 540 nm and an emission of 600 nm. Data is analyzed using Prism software (GraphPad, San Diego, CA) to calculate IC50 values.

The test system of another experiment is H2405 cells. Briefly: H2405 cell proliferation assay (1), resazurin, 96-well. To be noted: Homo sapiens, NCI-H2405, inhibition of cell proliferation. The format is cell-based. As to the method: H2405 Cell Proliferation Assay (1)
as §1, with “H2405” for “Miapaca-2”, “#CRL-5944)” for “#CRL-1420)”, “RPMI 1640” for “DMEM”, “5%” for “10%”, “CA)” for “CA), 2.5% New Zealand sourced horse serum”

T1 sequence (P15056 416-766 V600E): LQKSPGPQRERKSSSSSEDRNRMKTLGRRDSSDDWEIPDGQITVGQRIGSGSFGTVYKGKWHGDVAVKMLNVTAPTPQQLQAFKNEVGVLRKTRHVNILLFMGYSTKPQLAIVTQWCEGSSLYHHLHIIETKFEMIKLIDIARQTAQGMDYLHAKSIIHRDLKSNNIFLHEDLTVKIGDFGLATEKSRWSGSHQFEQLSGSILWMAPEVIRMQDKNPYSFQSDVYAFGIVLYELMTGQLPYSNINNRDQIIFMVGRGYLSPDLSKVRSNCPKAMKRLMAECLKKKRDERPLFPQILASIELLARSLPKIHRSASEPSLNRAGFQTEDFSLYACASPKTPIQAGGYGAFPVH

What is called IC50 is the concentration that inhibits the measured activity by half. As for `Cc1cc(F)c(NC(=O)NCC(C)C)cc1-c1cc(OCCO)nc(-c2ccnc(NC(=O)C3CC3)c2)c1` [Example 99], the IC50 on B-Raf (V600E) kinase was at most 0.1 µM; in the experiment with WM3928 cells, 0.1 to 0.5 µM; in the experiment on Miapaca-2 cells, 1 to 10 µM; with H2405 cells it was 0.1 to 0.5 µM.

Consider `COC(C)(C)CCNC(=O)Nc1cc(-c2ccnc(-c3ccnc(NC(=O)C4CC4)c3)n2)c(C)cc1F` [Example 108], for which the IC50 at B-Raf (V600E) kinase was at most 0.1 µM; in the experiment on WM3928 cells it was 0.1 to 0.5 µM; in the experiment on Miapaca-2 cells it was 1 to 10 µM; in the experiment on H2405 cells, 0.1 to 0.5 µM.

As for `Cc1cc(F)c(NC(=O)NCCC(C)(C)C)cc1-c1cc(OCCO)nc(C2=CCOCC2)c1` [Example 7], the IC50 is at most 0.1 µM at B-Raf (V600E) kinase, 0.1 to 0.5 µM in the experiment on WM3928 cells, 1 to 10 µM with Miapaca-2 cells and at most 0.1 µM with H2405 cells.

Regarding `COC(=O)Nc1cc(-c2cc(-c3cc(NC(=O)NCCC4(C)CC4)cnc3C)ccn2)ccn1` [Example 103], the IC50 at B-Raf (V600E) kinase was at most 0.1 µM; in the experiment on WM3928 cells, 0.5 to 1 µM; in the experiment on Miapaca-2 cells, 1 to 10 µM; in the experiment on H2405 cells, 1 to 10 µM.

As to `Cc1cc(F)c(NC(=O)NCCC(C)(C)F)cc1-c1cccc(-c2ccnc3[nH]ncc23)c1` [Example 100], the IC50 on B-Raf (V600E) kinase is at most 0.1 µM; with WM3928 cells it was 0.5 to 1 µM; with Miapaca-2 cells it was 1 to 10 µM; in the experiment with H2405 cells it was 1 to 10 µM.

For `Cc1cc(F)c(NC(=O)NCCC(C)(C)F)cc1-c1nccc(-c2ccnc(NC(=O)C3CC3)c2)n1` [Example 114], the IC50 on B-Raf (V600E) kinase is at most 0.1 µM; in the experiment with WM3928 cells, 0.5 to 1 µM; in the experiment on Miapaca-2 cells, 1 to 10 µM; in the experiment with H2405 cells, 0.5 to 1 µM.

Consider `Cc1ncc(NC(=O)NCCC2(C)CC2)cc1-c1cc(OCCO)nc(-c2ccnc3c2CC(=O)N3)c1` [Example 112], for which the IC50 on B-Raf (V600E) kinase was at most 0.1 µM; with WM3928 cells, 1 to 10 µM; with Miapaca-2 cells, 1 to 10 µM; in the experiment on H2405 cells, 1 to 10 µM.

Turning to `COC(=O)Nc1cc(-c2nccc(-c3cc(NC(=O)NCCC4(OC)CC4)c(F)cc3C)n2)ccn1` [Example 146], the IC50 was at most 0.1 µM at B-Raf (V600E) kinase, 1 to 10 µM in the experiment with Miapaca-2 cells and 1 to 10 µM in the experiment with H2405 cells.

`CNC(=O)c1cc(-c2cnnc(-c3cc(NC(=O)NCCC(C)(C)OC)c(F)cc3C)c2)ccn1` [Example 123]: the values for the IC50 on B-Raf (V600E) kinase, in the experiment with Miapaca-2 cells and with H2405 cells were at most 0.1 µM, 1 to 10 µM and 1 to 10 µM, respectively.

As for `COC(=O)Nc1cc(-c2nccc(-c3cc(NC(=O)NCCC(C)(C)F)c(F)cc3C)n2)ccn1` [Example 147], the results for the IC50 on B-Raf (V600E) kinase, in the experiment with Miapaca-2 cells and in the experiment with H2405 cells were at most 0.1 µM, 1 to 10 µM and 1 to 10 µM, respectively.

Take `Cc1cc(F)c(NC(=O)NCCC(C)(C)F)cc1-c1cc(-c2ccnc(NC(=O)C3CC3)c2)cnn1` [Example 139]: the results for the IC50 on B-Raf (V600E) kinase, in the experiment on Miapaca-2 cells and with H2405 cells were at most 0.1 µM, 1 to 10 µM and 0.5 to 1 µM, respectively.

As to `COC(=O)Nc1cc(-c2cc(-c3cc(NC(=O)NC4CC(C)(C)C4)cnc3C)cc(OCCO)n2)ccn1` [Example 156], the IC50 was at most 0.1 µM on B-Raf (V600E) kinase, 0.1 to 0.5 µM in the experiment with WM3928 cells and 0.1 to 0.5 µM in the experiment with H2405 cells.

Regarding `CNC(=O)c1cc(-c2cnnc(-c3cc(NC(=O)NCCC(C)(C)C)c(F)cc3C)c2)ccn1` [Example 119], the IC50 on B-Raf (V600E) kinase is at most 0.1 µM; in the experiment with WM3928 cells, 1 to 10 µM; in the experiment on Miapaca-2 cells, 1 to 10 µM; in the experiment on H2405 cells, 1 to 10 µM.

As to `Cc1cc(F)c(NC(=O)NCCC2(C)COC2)cc1-c1cc(OCCO)nc(-c2ccnc3[nH]ncc23)c1` [Example 110], the IC50 at B-Raf (V600E) kinase is at most 0.1 µM; in the experiment on WM3928 cells it was 1 to 10 µM; in the experiment with Miapaca-2 cells, 1 to 10 µM; in the experiment on H2405 cells, 1 to 10 µM.

On to `COC(=O)Nc1cc(-c2cc(-c3cc(NC(=O)NCCC(C)(C)F)cnc3C)cc(OCCO)n2)ccn1` [Example 165], for which the IC50 at B-Raf (V600E) kinase was at most 0.1 µM; in the experiment with WM3928 cells, 1 to 10 µM; with H2405 cells it was 0.1 to 0.5 µM.

For the molecule `Cc1cc(F)c(NC(=O)NCCC(F)F)cc1-c1cc(OCCO)nc(-c2ccnc(NC(=O)C3CC3)c2)c1` [Example 105], the half-maximal inhibitory concentration (IC50) at B-Raf (V600E) kinase was at most 0.1 µM; in the experiment with WM3928 cells, 0.5 to 1 µM; in the experiment with Miapaca-2 cells, 1 to 10 µM; in the experiment on H2405 cells, 0.5 to 1 µM.

Regarding `COC(=O)Nc1cc(-c2nc(OCCO)cc(-c3cc(NC(=O)NCCC(C)(C)F)c(F)cc3C)n2)ccn1` [Example 161], the IC50 at B-Raf (V600E) kinase, in the experiment with WM3928 cells and in the experiment on H2405 cells was at most 0.1 µM in each case.

Take `COC1(CCNC(=O)Nc2cc(-c3ccnc(-c4ccnc(NC(=O)C5CC5)c4)n3)c(C)cc2F)CC1` [Example 117]: the results for the IC50 on B-Raf (V600E) kinase, with Miapaca-2 cells and with H2405 cells were at most 0.1 µM, 1 to 10 µM and 0.1 to 0.5 µM, respectively.

For the molecule `COC(C)(C)CCNC(=O)Nc1cnc(C)c(-c2cc(-c3ccnc(NC(=O)C4CC4)c3)cnn2)c1` [Example 121], the IC50 at B-Raf (V600E) kinase was at most 0.1 µM; in the experiment with Miapaca-2 cells it was 1 to 10 µM; in the experiment on H2405 cells, 1 to 10 µM.

Regarding `Cc1cc(F)c(NC(=O)NCCC(C)(C)C)cc1-c1cc(-c2ccnc(NC(=O)C3CC3)c2)cnn1` [Example 131], the IC50 on B-Raf (V600E) kinase was at most 0.1 µM; in the experiment with Miapaca-2 cells, 1 to 10 µM; with H2405 cells, 0.1 to 0.5 µM.

For `COC(=O)Nc1cc(-c2nccc(-c3cc(NC(=O)NCCC4(OC)CC4)cnc3C)n2)ccn1` [Example 143], the results for the IC50 on B-Raf (V600E) kinase, in the experiment on Miapaca-2 cells and with H2405 cells were at most 0.1 µM, 1 to 10 µM and 1 to 10 µM, respectively.

Take `COC(=O)Nc1cc(-c2cnnc(-c3cc(NC(=O)NCCC(C)(C)OC)c(F)cc3C)c2)ccn1` [Example 140]: the IC50 on B-Raf (V600E) kinase was at most 0.1 µM; with Miapaca-2 cells it was 1 to 10 µM; in the experiment with H2405 cells, 1 to 10 µM.

As to `Cc1cc(F)c(NC(=O)NCCC(C)(C)C)cc1-c1cc(N2CCOCC2)nc(N2CCOCC2)c1` [Example 10], the IC50 at B-Raf (V600E) kinase was at most 0.1 µM; with WM3928 cells, 0.1 to 0.5 µM; with H2405 cells it was 0.5 to 1 µM.

In the case of `COC(=O)Nc1cc(-c2cc(-c3cc(NC(=O)NCCC4(OC)CC4)c(F)cc3C)ccn2)ccn1` [Example 145], the IC50 was at most 0.1 µM at B-Raf (V600E) kinase, 1 to 10 µM in the experiment on Miapaca-2 cells and 0.5 to 1 µM with H2405 cells.

In the case of `Cc1ccc(NC(=O)NCCC(C)(C)C)cc1-c1cc(N2CCOCC2)nc(N2CCOCC2)c1` [Example 4], the values for the IC50 on B-Raf (V600E) kinase, in the experiment with Miapaca-2 cells and in the experiment with H2405 cells were at most 0.1 µM, 1 to 10 µM and 0.1 to 0.5 µM, respectively.

Regarding `COC(=O)Nc1cc(-c2cccc(-c3cc(NC(=O)NCCC4(C)CC4)cnc3C)c2)ncn1` [Example 170], the values for the IC50 on B-Raf (V600E) kinase, in the experiment with WM3928 cells and in the experiment on H2405 cells were at most 0.1 µM, 0.1 to 0.5 µM and 0.1 to 0.5 µM, respectively.

Consider `COC(=O)Nc1cc(-c2cnnc(-c3cc(NC(=O)N4CCC(CC(F)(F)F)C4)c(F)cc3C)c2)ccn1` (stereo not shown) [Example 150], for which the half-inhibitory concentration (IC50) on B-Raf (V600E) kinase was at most 0.1 µM; in the experiment on WM3928 cells, 1 to 10 µM; in the experiment on H2405 cells, 0.5 to 1 µM.
